# Laboratory results reported in patent US20230233569A1 (Revolution Medicines, Inc., priority 2020, published 2023).
# Read-outs that look alike come from different tables or passages of the source.
# Legend:
# NCI-H358 (K-Ras G12C) = experiment: CellTiter-Glo cell viability assay, 5-day treatment; assay type: cell-based; conditions: Homo sapiens, NCI-H358, 120 h, 5-day treatment; read-out: H358 Cell Viability assay data (K-Ras G12C, IC50)
# Method in brief: (§1)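 Luminescence read-out after 5 days of compound exposure, with plates first brought to room temperature for roughly 30 minutes. Values are percent of averaged DMSO wells, fitted by four-parameter logistic regression.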
# Capan-1 (K-Ras G12V) = experiment: as above; assay type: cell-based; conditions: Homo sapiens, CAPAN-1, 120 h, 5-day treatment; read-out: Capan-1 Cell Viability assay data (K-Ras G12V, IC50)
# Method in brief: as §1
# NRAS WT = NRAS WT (Homo sapiens, UniProt P01111+P62937); experiment: Disruption of BRAF RBD interaction with Ras (FRET / MOA assay, with Cyclophilin A); assay type: biochemical; conditions: NRAS WT; read-out: NRAS WT FRET data IC50
# Method in brief: (§2)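 IC50 reflects compound-driven Ras:Cyclophilin A ternary complex displacing BRAF RBD, read as lowered TR-FRET ratio relative to DMSO after Eu anti-His (10 nM) and APC anti-GST (50 nM) detection for 1.5 h. Prior incubation 3 h, 25° C, with 12.5 nM GMPPNP-loaded Ras, 50 nM BRAF RBD, 25 μM Cyclophilin A; top compound 30 μM.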
# NRAS Q61K = NRAS Q61K (Homo sapiens, UniProt P01111+P62937, Q61K); experiment: as above; assay type: biochemical; conditions: NRAS Q61K; read-out: NRAS Q61K FRET data IC50
# Method in brief: as §2
# NRAS Q61R = NRAS Q61R (Homo sapiens, UniProt P01111+P62937, Q61R); experiment: as above; assay type: biochemical; conditions: NRAS Q61R; read-out: NRAS Q61R FRET data IC50
# Method in brief: as §2
# KRAS Q61H = KRAS Q61H (Homo sapiens, UniProt P01116+P62937, Q61H); experiment: as above; assay type: biochemical; conditions: KRAS Q61H; read-out: KRAS Q61H FRET data IC50
# Method in brief: as §2
# KRAS G12D = KRAS G12D (Homo sapiens, UniProt P01116+P62937, G12D); experiment: as above; assay type: biochemical
# Method in brief: (§3)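 Biochemical TR-FRET disruption assay: nucleotide-loaded K-Ras with Cyclophilin A and a BRAF RBD construct, compound titrated over 10 points from 30 μM (final).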
# KRAS G12S = KRAS G12S (Homo sapiens, UniProt P01116+P62937, G12S); experiment: as above; assay type: biochemical
# Method in brief: as §3
# KRAS G12C = KRAS G12C (Homo sapiens, UniProt P01116+P62937, G12C); experiment: as above; assay type: biochemical
# Method in brief: as §3
# KRAS WT = KRAS WT (Homo sapiens, UniProt P01116+P62937); experiment: as above; assay type: biochemical
# Method in brief: as §3
# NRAS G12C = NRAS G12C (Homo sapiens, UniProt P01111+P62937, G12C); experiment: as above; assay type: biochemical
# KRAS G13C = KRAS G13C (Homo sapiens, UniProt P01116+P62937, G13C); experiment: as above; assay type: biochemical
# Method in brief: as §3
# KRAS G12V = KRAS G12V (Homo sapiens, UniProt P01116+P62937, G12V); experiment: as above; assay type: biochemical
# Method in brief: as §3
# KRAS G13D = KRAS G13D (Homo sapiens, UniProt P01116+P62937, G13D); experiment: as above; assay type: biochemical
# Method in brief: as §3
# [1] = read-out: KRAS G12D FRET data, IC50
# [2] = read-out: KRAS G12S FRET data, IC50
# [3] = read-out: KRAS G12C FRET data, IC50
# [4] = KRAS WT, read-out: KRAS WT FRET data IC50
# [5] = NRAS G12C, read-out: NRAS G12C FRET data IC50
# [6] = read-out: KRAS G13C FRET data, IC50
# [7] = KRAS G12V, read-out: KRAS G12V FRET data IC50
# [8] = KRAS G13D, read-out: KRAS G13D FRET data IC50
# NRAS G12C, sequence (P01111 whole entry G12C): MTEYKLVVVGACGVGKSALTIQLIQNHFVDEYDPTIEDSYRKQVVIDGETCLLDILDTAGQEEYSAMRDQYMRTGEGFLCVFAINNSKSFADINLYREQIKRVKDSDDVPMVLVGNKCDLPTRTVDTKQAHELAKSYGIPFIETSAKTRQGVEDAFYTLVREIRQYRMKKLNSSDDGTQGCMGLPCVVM
# NRAS G12C, sequence (P62937 whole entry): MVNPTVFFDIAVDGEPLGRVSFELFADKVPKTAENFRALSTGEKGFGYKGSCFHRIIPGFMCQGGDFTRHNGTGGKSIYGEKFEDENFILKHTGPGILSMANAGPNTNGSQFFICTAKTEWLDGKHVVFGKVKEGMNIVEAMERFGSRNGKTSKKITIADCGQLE
# NRAS Q61K, sequence (P01111 whole entry Q61K): as the sequence (P01111 whole entry G12C) above, with C12G, Q61K counted along it
# NRAS Q61K, sequence (P62937 whole entry): as the sequence (P62937 whole entry) above
# KRAS G12D, sequence (P01116 1-169 isoform P01116-2 G12D limits assumed): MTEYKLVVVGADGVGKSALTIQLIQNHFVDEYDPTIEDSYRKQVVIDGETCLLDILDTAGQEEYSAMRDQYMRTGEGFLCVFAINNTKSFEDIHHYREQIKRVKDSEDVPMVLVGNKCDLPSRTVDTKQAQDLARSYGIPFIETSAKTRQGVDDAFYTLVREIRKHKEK
# KRAS G12D, sequence (P62937 whole entry): as the sequence (P62937 whole entry) above
# KRAS G12C, sequence (P01116 1-169 isoform P01116-2 G12C): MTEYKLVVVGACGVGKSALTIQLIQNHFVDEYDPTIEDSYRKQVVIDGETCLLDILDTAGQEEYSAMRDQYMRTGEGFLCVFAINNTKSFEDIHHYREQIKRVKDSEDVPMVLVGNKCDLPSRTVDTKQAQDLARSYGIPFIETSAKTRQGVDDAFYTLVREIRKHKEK
# KRAS G12C, sequence (P62937 whole entry): as the sequence (P62937 whole entry) above
# KRAS G12S, sequence (P01116 1-169 isoform P01116-2 G12S limits assumed): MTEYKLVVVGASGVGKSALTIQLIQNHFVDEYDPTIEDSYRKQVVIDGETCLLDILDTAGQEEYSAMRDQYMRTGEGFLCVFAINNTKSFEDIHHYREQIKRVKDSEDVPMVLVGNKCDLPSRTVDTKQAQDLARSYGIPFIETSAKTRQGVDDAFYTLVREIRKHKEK
# KRAS G12S, sequence (P62937 whole entry): as the sequence (P62937 whole entry) above
# KRAS WT, sequence (P01116 1-169 isoform P01116-2 limits assumed): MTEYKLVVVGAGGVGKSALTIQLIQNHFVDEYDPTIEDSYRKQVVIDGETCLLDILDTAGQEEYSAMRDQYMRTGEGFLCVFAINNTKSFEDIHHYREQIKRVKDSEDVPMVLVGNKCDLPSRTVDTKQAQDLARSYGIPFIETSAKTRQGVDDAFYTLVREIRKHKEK
# KRAS WT, sequence (P62937 whole entry): as the sequence (P62937 whole entry) above
# NRAS WT, sequence (P01111 whole entry): as the sequence (P01111 whole entry G12C) above, with C12G counted along it
# NRAS WT, sequence (P62937 whole entry): as the sequence (P62937 whole entry) above
# KRAS G13C, sequence (P01116 1-169 isoform P01116-2 G13C): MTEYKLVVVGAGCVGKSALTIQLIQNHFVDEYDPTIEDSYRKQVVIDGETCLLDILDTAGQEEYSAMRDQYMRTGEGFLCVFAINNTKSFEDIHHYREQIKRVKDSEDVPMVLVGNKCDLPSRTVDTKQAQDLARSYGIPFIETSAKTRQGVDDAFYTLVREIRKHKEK
# KRAS G13C, sequence (P62937 whole entry): as the sequence (P62937 whole entry) above
# KRAS Q61H, sequence (P01116 1-169 isoform P01116-2 Q61H limits assumed): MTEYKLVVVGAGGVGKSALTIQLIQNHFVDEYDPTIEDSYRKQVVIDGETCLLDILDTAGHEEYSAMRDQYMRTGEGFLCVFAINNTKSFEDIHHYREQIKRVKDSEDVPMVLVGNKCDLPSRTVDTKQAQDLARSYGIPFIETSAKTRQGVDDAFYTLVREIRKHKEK
# KRAS Q61H, sequence (P62937 whole entry): as the sequence (P62937 whole entry) above
# NRAS Q61R, sequence (P01111 whole entry Q61R): as the sequence (P01111 whole entry G12C) above, with C12G, Q61R counted along it
# NRAS Q61R, sequence (P62937 whole entry): as the sequence (P62937 whole entry) above
# KRAS G13D, sequence (P01116 1-169 isoform P01116-2 G13D limits assumed): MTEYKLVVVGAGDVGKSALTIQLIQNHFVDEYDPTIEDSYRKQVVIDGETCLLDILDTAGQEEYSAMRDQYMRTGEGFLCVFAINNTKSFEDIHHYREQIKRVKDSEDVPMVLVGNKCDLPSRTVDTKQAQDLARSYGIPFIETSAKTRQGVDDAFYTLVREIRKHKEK
# KRAS G13D, sequence (P62937 whole entry): as the sequence (P62937 whole entry) above
# KRAS G12V, sequence (P01116 1-169 isoform P01116-2 G12V limits assumed): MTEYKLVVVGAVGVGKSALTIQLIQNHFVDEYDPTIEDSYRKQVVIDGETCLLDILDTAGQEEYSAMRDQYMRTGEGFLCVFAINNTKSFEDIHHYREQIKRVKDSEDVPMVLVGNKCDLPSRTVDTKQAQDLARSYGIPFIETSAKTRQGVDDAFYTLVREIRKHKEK
# KRAS G12V, sequence (P62937 whole entry): as the sequence (P62937 whole entry) above
IC50 (NCI-H358 (K-Ras G12C)),IC50 (NRAS WT),IC50 (NRAS Q61K),IC50 (NRAS Q61R),IC50 (KRAS Q61H),IC50 (KRAS G12D; [1]),IC50 (KRAS G12S; [2]),IC50 (KRAS G12C; [3]),IC50 (KRAS WT; [4]),IC50 (NRAS G12C; [5]),IC50 (KRAS G13C; [6]),IC50 (KRAS G12V; [7]),IC50 (KRAS G13D; [8]),SMILES,IC50 (Capan-1 (K-Ras G12V)),also measured
100 to 1000 nM,10 to 100 nM,100 to 1000 nM,100 to 1000 nM,10 to 100 nM,100 to 1000 nM,100 to 1000 nM,10 to 100 nM,10 to 100 nM,10 to 100 nM,100 to 1000 nM,100 to 1000 nM,100 to 1000 nM,CCn1c(-c2cccnc2[C@H](C)OC)c2c3cc(ccc31)-c1csc(n1)C[C@H](NC(=O)[C@H](C(C)C)N(C)C(=O)N1CCC13CN(C)C3)C(=O)N1CCC[C@H](N1)C(=O)OCC(C)(C)C2 [Example A274],100 to 1000 nM,–
10 to 100 nM,100 to 1000 nM,10 to 100 nM,100 to 1000 nM,10 to 100 nM,100 to 1000 nM,100 to 1000 nM,10 to 100 nM,100 to 1000 nM,10 to 100 nM,100 to 1000 nM,100 to 1000 nM,100 to 1000 nM,"CCn1c(-c2cccnc2[C@H](C)OC)c2c3cc(ccc31)-c1csc(n1)C[C@H](NC(=O)[C@H](C(C)C)N(C)C(=O)N1CC3(CC(N(C)C)C3)C1)C(=O)N1CCC[C@H](N1)C(=O)OCC(C)(C)C2 (atropisomer, axis not shown) [Example A280]",10 to 100 nM,–
10 to 100 nM,100 to 1000 nM,100 to 1000 nM,1000 to 10000 nM,100 to 1000 nM,1000 to 10000 nM,1000 to 10000 nM,100 to 1000 nM,1000 to 10000 nM,100 to 1000 nM,1000 to 10000 nM,1000 to 10000 nM,1000 to 10000 nM,CCn1c(-c2cccnc2[C@H](C)OC)c2c3cc(ccc31)-c1csc(n1)C[C@H](NC(=O)[C@H](C(C)C)N(C)C(=O)N1C[C@@H]3CN(C)CC[C@@H]31)C(=O)N1CCC[C@H](N1)C(=O)OCC(C)(C)C2 [Example A481],10 to 100 nM,–
10 to 100 nM,100 to 1000 nM,10 to 100 nM,100 to 1000 nM,10 to 100 nM,1000 to 10000 nM,100 to 1000 nM,10 to 100 nM,100 to 1000 nM,10 to 100 nM,100 to 1000 nM,100 to 1000 nM,100 to 1000 nM,"CCn1c(-c2cccnc2[C@H](C)OC)c2c3cc(ccc31)-c1csc(n1)C[C@H](NC(=O)[C@H](C(C)C)N(C)C(=O)N1CC(N(C)S(C)(=O)=O)C1)C(=O)N1CCC[C@H](N1)C(=O)OCC(C)(C)C2 (atropisomer, axis not shown) [Example A550]",10 to 100 nM,–
< 10 nM,10 to 100 nM,10 to 100 nM,100 to 1000 nM,10 to 100 nM,–,–,–,–,–,–,–,–,"CCn1c(-c2cccnc2[C@H](C)OC)c2c3cc(ccc31)-c1csc(n1)C[C@H](NC(=O)[C@H](C(C)C)N(C)C(=O)N1CCC[C@H](CN(C)C)C1)C(=O)N1CCC[C@H](N1)C(=O)OCC(C)(C)C2 (atropisomer, axis not shown) [Example A573]",10 to 100 nM,"IC50 (KRAS G12D; KRAS G12D FRET data, IC50): 10 to 100 nM; IC50 (KRAS G12S; KRAS G12S FRET data, IC50): 10 to 100 nM; IC50 (KRAS G12C; KRAS G12C FRET data, IC50): 10 to 100 nM; IC50 (KRAS WT; KRAS WT FRET data IC50, KRAS WT): 10 to 100 nM; IC50 (NRAS G12C; NRAS G12C FRET data IC50, NRAS G12C): 10 to 100 nM; IC50 (KRAS G13C; KRAS G13C FRET data, IC50): 10 to 100 nM; IC50 (KRAS G12V; KRAS G12V FRET data IC50, KRAS G12V): 100 to 1000 nM; IC50 (KRAS G13D; KRAS G13D FRET data IC50, KRAS G13D): 10 to 100 nM"
< 10 nM,100 to 1000 nM,10 to 100 nM,100 to 1000 nM,10 to 100 nM,100 to 1000 nM,100 to 1000 nM,10 to 100 nM,100 to 1000 nM,10 to 100 nM,100 to 1000 nM,100 to 1000 nM,100 to 1000 nM,"CCn1c(-c2cccnc2[C@H](C)OC)c2c3cc(ccc31)-c1csc(n1)C[C@H](NC(=O)[C@H](C(C)C)N(C)C(=O)N1CC(OC(F)F)C1)C(=O)N1CCC[C@H](N1)C(=O)OCC(C)(C)C2 (atropisomer, axis not shown) [Example A302]",10 to 100 nM,–

# The remaining lines, values behind:
SMILES,IC50 (NCI-H358 (K-Ras G12C)),IC50 (NRAS WT),IC50 (NRAS Q61K),IC50 (NRAS Q61R),IC50 (KRAS Q61H),IC50 (KRAS G12D; [1]),IC50 (KRAS G12S; [2]),IC50 (KRAS G12C; [3]),IC50 (KRAS WT; [4]),IC50 (NRAS G12C; [5]),IC50 (KRAS G13C; [6]),IC50 (KRAS G12V; [7]),IC50 (KRAS G13D; [8]),IC50 (Capan-1 (K-Ras G12V)),also measured
CCn1c(-c2cccnc2[C@H](C)OC)c2c3cc(ccc31)-c1cc(O)cc(c1)C[C@H](NC(=O)[C@H](C(C)C)N(C)C(=O)C1(C#N)CC1)C(=O)N1CCC[C@H](N1)C(=O)OCC(C)(C)C2 (racemic) [Example A159],< 10 nM,10 to 100 nM,10 to 100 nM,10 to 100 nM,< 10 nM,10 to 100 nM,10 to 100 nM,10 to 100 nM,10 to 100 nM,10 to 100 nM,10 to 100 nM,10 to 100 nM,10 to 100 nM,10 to 100 nM,–
CCn1c(-c2cccnc2[C@H](C)OC)c2c3cc(ccc31)-c1csc(n1)C[C@H](NC(=O)[C@H](C(C)C)N(C)C(=O)N1CCOC[C@@H]1c1ccccc1)C(=O)N1CCC[C@H](N1)C(=O)OCC(C)(C)C2 [Example A604],100 to 1000 nM,1000 to 10000 nM,100 to 1000 nM,1000 to 10000 nM,100 to 1000 nM,1000 to 10000 nM,1000 to 10000 nM,1000 to 10000 nM,1000 to 10000 nM,1000 to 10000 nM,1000 to 10000 nM,1000 to 10000 nM,1000 to 10000 nM,1000 to 10000 nM,–
"CCn1c(-c2cccnc2[C@H](C)OC)c2c3cc(ccc31)-c1csc(n1)C[C@H](NC(=O)[C@H](C(C)C)N(C)C(=O)N1CCN(C(=O)CO)CC1)C(=O)N1CCC[C@H](N1)C(=O)OCC(C)(C)C2 (atropisomer, axis not shown) [Example A306]",< 10 nM,10 to 100 nM,10 to 100 nM,10 to 100 nM,10 to 100 nM,100 to 1000 nM,100 to 1000 nM,10 to 100 nM,10 to 100 nM,10 to 100 nM,100 to 1000 nM,100 to 1000 nM,100 to 1000 nM,10 to 100 nM,–
CCn1c(-c2cccnc2[C@H](C)OC)c2c3cc(ccc31)-c1cc(O)cc(c1)C[C@H](NC(=O)[C@H](C(C)C)N(C)C(=O)C1Cc3cccnc3C1)C(=O)N1CCC[C@H](N1)C(=O)OCC(C)(C)C2 (stereo partly shown) [Example A250],10 to 100 nM,10 to 100 nM,100 to 1000 nM,100 to 1000 nM,10 to 100 nM,100 to 1000 nM,10 to 100 nM,10 to 100 nM,100 to 1000 nM,10 to 100 nM,10 to 100 nM,10 to 100 nM,100 to 1000 nM,10 to 100 nM,–
CCn1c(-c2cc(N3CCN(C)CC3)cnc2[C@H](C)OC)c2c3cc(ccc31)-c1cc(O)cc(c1)C[C@H](NC(=O)[C@H](C1CCCC1)N(C)C(=O)[C@H]1OCC[C@H]1c1ccccc1)C(=O)N1CCC[C@H](N1)C(=O)OCC(C)(C)C2 [Example A423],100 to 1000 nM,100 to 1000 nM,1000 to 10000 nM,100 to 1000 nM,100 to 1000 nM,100 to 1000 nM,100 to 1000 nM,100 to 1000 nM,100 to 1000 nM,100 to 1000 nM,100 to 1000 nM,10 to 100 nM,100 to 1000 nM,100 to 1000 nM,–
